# Experimental data published in patent publication US20090325863A1, “Somatostatin analogs and IGF-I inhibition for breast cancer prevention” (priority 2008, published 2009).
# Several values for one entry are separate records, joined by “and”; a condition that tells them apart may be missing. Equal values may be shown once. Entries after “also recorded” stand apart in the source; their conditions may differ. *1 amine or outer side, *2 acyl side, *3 side chain or, on linkers, in order; H or OH if unused. Where a SMILES comes first, the peptide text is derived from it. Side-chain parts run from the residue outwards. [ ]: non-standard residue; d: D form. The star is where a group is joined. Ethylenediamine = C(CN[*:2])N[*:1]; Hyp = O=C(O)[C@@H]1C[C@@H](O)CN1; Phg = N[C@H](C(=O)O)c1ccccc1; CO = O=C([*:1])[*:2]; Bn = c1ccc(C*)cc1
# Key:
# [1] = test system: hGH induced TEB formation; assay: Hyperplastic terminal endbuds (TEBs) in mammary gland whole mounts, hGH+E2 model; assay type: in vivo, rat; conditions: for TEB area: Table 2, mean of 3 animals, hGH + E control 43.1 ± 2.9, P 0.002
# Description: At the end of 7 days one lumbar mammary gland was removed for whole mount analysis and the other for histological analysis. Hyperplastic TEBs were counted in the whole mounts. […] Representative photomicrographs of the whole mounts are provided in FIG. 5 and suppression by the different treatments is shown graphically in FIG. 6.
# [2] = test system: Ki67 positive cells in mammary gland; assay: Cell proliferation by Ki67 immunostaining in mammary gland, hGH+E2 model; assay type: in vivo, rat; conditions: for % Ki67 positive cells, Normal gland / % Ki67 positive cells, DH structure Mod + mild: 3 animals; for % Ki67 positive cells, Normal gland: hGH + E2 control 5.1 ± 0.1; for % Ki67 positive cells, DH structure Mod + mild: hGH + E2 control 22.5 ± 1.6 (P < 0.05); for cell proliferation / Ki67 staining (in words): hGH+E2 model versus hGH+E2 control
# Procedure: The histological sections were also analyzed for cell proliferation by Ki67 immunostaining and for apoptosis by TUNEL. Twenty five percent of cells in areas of florid hyperplasia were stained for Ki67. […] When the glands were normal and not hyperplastic, only 5.1% stained for Ki67. […] The immunostaining for Ki67 can be seen in FIG. 3.
# We next determined the effects of the various treatment regimens on cell proliferation as assessed by Ki67 immunostaining. […] The percent Ki67 positive cells is depicted in TABLE 4 below.
# [3] = test system: TUNEL labeled cells in mammary gland; assay: Apoptosis by TUNEL staining in mammary gland, hGH+E2 model; assay type: in vivo, rat; conditions: for % TUNEL labeled cells, DH structure Mod + mild / % TUNEL labeled cells, Normal gland: 3 animals, 7 days; for % TUNEL labeled cells, DH structure Mod + mild: hGH + E2 control 1.9 ± 0.2 (P < 0.002); for % TUNEL labeled cells, Normal gland: hGH + E2 control 2.3 ± 0.1 (P < 0.001); for apoptosis / cell death (in words): hGH+E2 model versus hGH+E2 control
# Description: We also looked at the effect of the various treatment regimens on apoptosis. GH+E2 inhibited apoptosis, with the results are as follows. […] The percent TUNEL labeled cells is depicted in TABLE 5 below.
# VEGF = VEGF immunostaining in mammary glands of normally developing rats; assay type: in vivo, rat; conditions: 28 day old rats treated from day 21; gland cells and mast cells
# Description: They were found in both gland cells and mast cells.
# [4] = test system: hyperplastic lesions, LCIS and DCIS of human mammary gland; assay: Proof of principle clinical trial, biopsies before and after treatment (Ki67, TUNEL); assay type: in vivo
# Description: Background: Antiestrogens or aromatase inhibitors are used for breast cancer chemoprevention. These treatments cause unpleasant side effects including hot flashes and vaginal dryness. We have previously shown that IGF-I is required to permit estrogen and progesterone action in the mammary gland. […] Menopausal symptoms would not likely to occur with SOM230 since estrogen is not lowered. Material and Methods: We have approached this issue in several ways. 1) We developed a model of hyperplasia in hypophysectomized and oophorectomized female rats. Hyperplasia was induced by treatment with 600 mcg hGH and follicular phase concentrations of estradiol. Hyperplasia was assessed histologically in sections of mammary gland. 2) To assess translatability to humans we assessed cell proliferation and apoptosis in normal human breast from reduction mammoplasties and samples of usual hyperplasia. 3) We also determined availability of SST receptors in samples of atypical ductal hyperplasia and DCIS, and 4) We have begun to determine whether SOM230 will prevent hyperplasia in humans at risk for breast cancer as it does in rats.
# A proof of principle clinical trial is underway to further confirm whether SOM230 inhibits cell proliferation and increases apoptosis in human mammary gland as it does in rats. Data is presently available on 11 enlisted subjects. All patients had atypical hyperplasia on core biopsy and were given 600 ug SOM230 twice daily by injection. Data is available on 8 patients who had forms of hyperplasia that increase the likelihood of developing breast cancer. […] The effect of SOM230 on apoptosis and cell proliferation in hyperplastic lesions in the 8 patients is graphed in FIG. 17. This was also true in 2 cases of LCIS, a pre-cancerous condition, and one case of ductal carcinoma in situ, a cancerous situation. Apoptosis and cell proliferation is graphed for the 2 lobular hyperplasia patients in FIG. 18. FIG. 19 provides a DCIS patient sample cell staining for TUNEL and Ki67 before and after SOM230 administration. DCIS is a very common type of noninvasive breast cancer in women. Thus, human beings respond to SOM230 by inhibiting IGF-I action in the mammary gland. Taken together with our data on relative effects of SOM230 and Tamoxifen our data provide evidence that SOM230 will be at least as effective in preventing or treating breast cancer as Tamoxifen.
# [5] = 8 hyperplasia patients, 600 ug twice daily by injection, biopsy before/after
# [6] = lobular carcinoma in situ patients (2 cases), excisional versus core biopsy
smiles,measurement,setting,value
NCCCC[C@@H]1NC(=O)[C@@H](Cc2c[nH]c3ccccc23)NC(=O)[C@H](c2ccccc2)NC(=O)[C@@H]2C[C@@H](OC(=O)NCCN)CN2C(=O)[C@H](Cc2ccccc2)NC(=O)[C@H](Cc2ccc(OCc3ccccc3)cc2)NC1=O [SOM230] (cyclo([Hyp]([CO-Ethylenediamine])[Phg][dW]KY(Bn)F)),"TEB area, individual animals","[1]; Table 2, animal # 1-3, hGH + E controls 48549, 38496, 42285, listed as SOM",18816 and 13652 and 15356
same,TEB area,[1],reduced
same,TEB area,[1]; listed as SOM,15.9 ± 1.5 (μm^2) × 10^3
same,number of hyperplastic TEBs in whole mounts,"[1]; hGH+E2, 7 days, reduced from 86.5 (86) TEBs in hGH+E2 control",27.5
same,"% Ki67 positive cells, Normal gland",[2],no significant reduction
same,"% Ki67 positive cells, Normal gland",[2]; listed as SOM,4.3 ± 0.4%
same,"% Ki67 positive cells, DH structure Mod + mild",[2],14.2%
same,"% Ki67 positive cells, DH structure Mod + mild",[2]; listed as SOM,14.2 ± 2.5%
same,cell proliferation / Ki67 staining (in words),[2],reduction in cell proliferation; also recorded: decrease in Ki67 staining
same,cell proliferation / Ki67 staining (in words),[2]; listed as SOM 230,remarkable decrease in cell division
same,"% TUNEL labeled cells, DH structure Mod + mild",[3],increase in apoptosis
same,"% TUNEL labeled cells, DH structure Mod + mild",[3]; listed as SOM,5.5 ± 0.4%
same,"% TUNEL labeled cells, Normal gland",[3],increase in apoptosis
same,"% TUNEL labeled cells, Normal gland",[3]; listed as SOM,6.5 ± 0.4%
same,apoptosis / cell death (in words),[3],increase in cell death; also recorded: increase in apoptosis; also recorded: more apoptosis
same,apoptosis / cell death (in words),[3]; listed as SOM 230,increase in apoptosis
same,expression of VEGF (immunostaining),VEGF,reduced expression
same,apoptosis (TUNEL assay) in hyperplastic lesions,[4]; [5],increase in apoptosis
same,cell proliferation (Ki67 assay) in hyperplastic lesions,[4]; [5],inhibition of cell proliferation
same,apoptosis (TUNEL) in LCIS,[4]; [6],increased apoptosis
same,cell proliferation (Ki67) in LCIS,[4]; [6],decreased cell proliferation
